From patent publication US9290461B2, “Crystalline modifications of prothioconazole” (ADAMA MAKHTESHIM LTD, priority 2008, dated 2016)

What was measured:
[1] = Solubility in water, Shake Flask Method (OECD Guideline 105); type: physicochemical; details: 20° C., buffered at pH 7, Shake Flask Method (OECD Guideline 105)
Method: The following solubilities were measured in water, 20° C., buffered at pH 7, using the Shake Flask Method (OECD Guideline 105): […]

[2] = at room temperature; cited from earlier work

SMILES	solubility in water [1] [ppm]	thermodynamic stability of the crystalline form [2]
OC(Cc1ccccc1Cl)(Cn1nc[nH]c1=S)C1(Cl)CC1 (stereo not drawn) [Amorphous, prothioconazole]	34	–
OC(Cc1ccccc1Cl)(Cn1nc[nH]c1=S)C1(Cl)CC1 (racemic) [Form I, 2-[(2RS)-2-(1-chlorocyclopropyl)-3-(2-chlorophenyl)-2-hydroxypropyl]-2H-1,2,4-triazole-3(4H)-thione]	28	metastable at room temperature
OC(Cc1ccccc1Cl)(Cn1nc[nH]c1=S)C1(Cl)CC1 (stereo not drawn) [DMSO Solvate, prothioconazole]	30	–
OC(Cc1ccccc1Cl)(Cn1nc[nH]c1=S)C1(Cl)CC1 (racemic) [Form II, 2-[(2RS)-2-(1-chlorocyclopropyl)-3-(2-chlorophenyl)-2-hydroxypropyl]-2H-1,2,4-triazole-3(4H)-thione]	15	thermodynamically stable at room temperature
